This is an account of results in ChEMBL document CHEMBL5321270, “Discovery of Pyrazolone Carbothioamide Derivatives as Inhibitors of the Pdr1-KIX Interaction for Combinational Treatment of Azole-Resistant Candidiasis” (J Med Chem, 2023).

What is called Ki is a measure of affinity in units of concentration, obtained from inhibition or displacement. For orientation: MIC means the smallest concentration in the dilution series that meets the test's criterion for growth inhibition. For orientation: Kd means the concentration at which binding is half-saturated. What is called solubility is the concentration that dissolves in the medium under given conditions.

SMILES strings stand for the structures. Values after ≈ are worked out from the molar mass of the structure shown. Active and inactive are the calls of the source.

A short description of series [1]: Inhibition of fluorescent probe FITC tagged PDR1-KIX domain (unknown origin) protein-protein interaction assessed as inhibition constant incubated for 2 hrs by fluorescence polarization binding assay.
Series [2] relates to Nakaseomyces glabratus. As to the kind of experiment: Antifungal activity against fluconazole-resistant Candida glabrata 0161 assessed as fungal growth inhibition incubated for 48 hrs by microplate reader assay. The format is functional.
Series [3] deals with Nakaseomyces glabratus. As to the kind of experiment: Antifungal activity against fluconazole-resistant Candida glabrata 0161 assessed as fractional inhibitory concentration incubated for 48 hrs in presence of fluconazole by microplate reader assay. Format: functional.
Series [4] has as its system Nakaseomyces glabratus. As to the kind of experiment: Antifungal activity against fluconazole-resistant Candida glabrata 0161 assessed as fluconazole fractional inhibitory concentration incubated for 48 hrs in presence of fluconazole by microplate reader assay. The format is functional.
Series [5] has as its system Nakaseomyces glabratus. Put plainly: Synergistic antifungal activity against fluconazole-resistant Candida glabrata 0161 assessed as fractional inhibitory concentration index incubated for 48 hrs in presence of fluconazole by checkerboard microdilution method. Format: functional.
Series [6] has as its system Nakaseomyces glabratus. Put plainly: Antifungal activity against fluconazole-resistant Candida glabrata 9256 assessed as fungal growth inhibition incubated for 48 hrs by microplate reader assay. Format: functional.
Series [7] has as its system Nakaseomyces glabratus. Put plainly: Antifungal activity against fluconazole-resistant Candida glabrata 8535 assessed as fungal growth inhibition incubated for 48 hrs by microplate reader assay. The format is functional.
For series [8], the system named is Candida albicans. Put plainly: Antifungal activity against Candida albicans assessed as fungal growth inhibition incubated for 48 hrs by microplate reader assay. Format: functional.
Series [9] has as its system Candida tropicalis. As to the kind of experiment: Antifungal activity against Candida tropicalis 10186 assessed as fungal growth inhibition incubated for 48 hrs by microplate reader assay. The format is functional.
The test system of series [10] is Candida parapsilosis. As to the kind of experiment: Antifungal activity against Candida parapsilosis 20090 assessed as fungal growth inhibition incubated for 48 hrs by microplate reader assay. Conditions: Lodderomyces parapsilosis. Format: functional.
In series [11] the test system is [Candida] auris. As to the kind of experiment: Antifungal activity against Candida auris 0030 assessed as fungal growth inhibition incubated for 48 hrs by microplate reader assay. The format is functional. Conditions: Candidozyma auris.
Series [12] has as its system [Candida] auris. As to the kind of experiment: Antifungal activity against Candida auris 15448 assessed as fungal growth inhibition incubated for 48 hrs by microplate reader assay. The format is functional. Conditions: Candidozyma auris.
Series [13] deals with Aspergillus fumigatus. Put plainly: Antifungal activity against Aspergillus fumigatus 7544 assessed as fungal growth inhibition incubated for 48 hrs by microplate reader assay. Format: functional.
Series [14] deals with Nannizzia gypsea. As to the kind of experiment: Antifungal activity against Microsporum gypseum assessed as fungal growth inhibition incubated for 48 hrs by microplate reader assay. Format: functional.
The test system of series [15] is Trichophyton rubrum. As to the kind of experiment: Antifungal activity against Trichophyton rubrum assessed as fungal growth inhibition incubated for 48 hrs by microplate reader assay. The format is functional.
In series [16] the test system is Cryptococcus neoformans. As to the kind of experiment: Antifungal activity against Cryptococcus neoformans H99 assessed as fungal growth inhibition incubated for 48 hrs by microplate reader assay. The format is functional.
In series [17] the test system is Nakaseomyces glabratus. Put plainly: Antifungal activity against FLC-resistant Candida glabrata 0161 infected in cyclophosphamide immunosuppressed ICR mouse model assessed as inhibition of fungal growth in kidney at 40 mg/kg,ip administrated for 5 days. Format: functional, organism-based. The conditions noted are these: time 5.0 day.
Series [18] in a line: Binding affinity to Candida glabrata KIX domain assessed as dissociation constant. More on the design: species or system Nakaseomyces glabratus.
Series [19] is described as follows: Aqueous solubility of compound. Format: physicochemical.

Regarding `Nc1cc(=O)n(C(=S)Nc2ccc(I)cc2)[nH]1`, the Ki in series [1] turned out to be 137 µM. In addition, the minimal inhibitory concentration (MIC) was determined as 0.25 µg/mL (≈ 0.694 µM) in series [2]; 0.25 µg/mL (≈ 0.694 µM) in series [6]; 0.25 µg/mL (≈ 0.694 µM) in series [7]; 4 µg/mL (≈ 11.1 µM) in series [8]; 4 µg/mL (≈ 11.1 µM) in series [9]; 4 µg/mL (≈ 11.1 µM) in [10]. Further, the MIC was determined as 2 µg/mL (≈ 5.55 µM) in series [11]; 2 µg/mL (≈ 5.55 µM) in [12]; 16 µg/mL (≈ 44.4 µM) in series [13]; 1 µg/mL (≈ 2.78 µM) in [14]; 1 µg/mL (≈ 2.78 µM) in [15]; 0.063 µg/mL (≈ 0.175 µM) in [16]. Also, the FIC in series [3] stood at 0.13 µg/mL. Also, the “fluconazole MIC in combination” value in series [4] worked out at 0.25 µg/mL. The “fractional inhibitory concentration index (FICI)” value in series [5] was 0.53.
With `Nc1cc(=O)n(C(=S)Nc2cccc(Cl)c2Cl)[nH]1`, the Ki in series [1] was 27.2 µM. Also, the MIC was determined as 0.25 µg/mL (≈ 0.825 µM) in [2]; 0.25 µg/mL (≈ 0.825 µM) in series [6]; 0.25 µg/mL (≈ 0.825 µM) in series [7]; 4 µg/mL (≈ 13.2 µM) in series [8]; 4 µg/mL (≈ 13.2 µM) in series [9]; 4 µg/mL (≈ 13.2 µM) in series [10]. Also, the MIC stood at 2 µg/mL (≈ 6.6 µM) in series [11]; 2 µg/mL (≈ 6.6 µM) in [12]; 16 µg/mL (≈ 52.8 µM) in series [13]; 1 µg/mL (≈ 3.3 µM) in series [14]; 1 µg/mL (≈ 3.3 µM) in series [15]; 0.063 µg/mL (≈ 0.208 µM) in series [16]. Further, the FIC in series [3] was 0.063 µg/mL. The “fluconazole MIC in combination” value in [4] is 2 µg/mL. Further, in series [5], the “fractional inhibitory concentration index (FICI)” value came to 0.31.
For `Nc1cc(=O)n(C(=S)Nc2ccc(Cl)cc2)[nH]1`, the Ki in series [1] came out at 54.5 µM. For the same compound, the minimal inhibitory concentration (MIC) in [2] is 0.25 µg/mL (≈ 0.93 µM); in [6] it was 0.25 µg/mL (≈ 0.93 µM); in [7], 0.25 µg/mL (≈ 0.93 µM); in series [8], 4 µg/mL (≈ 14.9 µM); in series [9], 4 µg/mL (≈ 14.9 µM); in [10], 4 µg/mL (≈ 14.9 µM). Also, the MIC was found to be 2 µg/mL (≈ 7.44 µM) in [11]; 2 µg/mL (≈ 7.44 µM) in series [12]; 16 µg/mL (≈ 59.5 µM) in [13]; 1 µg/mL (≈ 3.72 µM) in series [14]; 1 µg/mL (≈ 3.72 µM) in series [15]; 0.063 µg/mL (≈ 0.234 µM) in [16]. Also, in series [3], the FIC worked out at 0.063 µg/mL. For the same compound, the “fluconazole MIC in combination” value in series [4] is 2 µg/mL. Further, the “fractional inhibitory concentration index (FICI)” value in series [5] is given as 0.31.
Turning to `Nc1cc(=O)n(C(=S)Nc2ccc(Cl)cc2Cl)[nH]1`, the Ki in series [1] came out at 84.7 µM. For the same compound, the MIC is 0.5 µg/mL (≈ 1.65 µM) in series [2]; 0.25 µg/mL (≈ 0.825 µM) in series [6]; 0.25 µg/mL (≈ 0.825 µM) in series [7]; 4 µg/mL (≈ 13.2 µM) in [8]; 4 µg/mL (≈ 13.2 µM) in series [9]; 4 µg/mL (≈ 13.2 µM) in series [10]. In addition, the MIC was 2 µg/mL (≈ 6.6 µM) in [11]; 2 µg/mL (≈ 6.6 µM) in series [12]; 16 µg/mL (≈ 52.8 µM) in series [13]; 1 µg/mL (≈ 3.3 µM) in series [14]; 1 µg/mL (≈ 3.3 µM) in series [15]; 0.063 µg/mL (≈ 0.208 µM) in series [16]. Moreover, the FIC in series [3] was found to be 0.13 µg/mL. The “fluconazole MIC in combination” value in series [4] turned out to be 1 µg/mL. For the same compound, the “fractional inhibitory concentration index (FICI)” value in [5] worked out at 0.29.
As for `N#CCC(=O)NNC(=S)Nc1ccc(Cl)c(Cl)c1`, the Ki in series [1] came to 29.2 µM. Further, the outcome in series [17] was Active. The dissociation constant Kd in series [18] stood at 2.8 µM. Moreover, the minimum inhibitory concentration (MIC) in [2] came out at 32 µg/mL (≈ 106 µM). In series [3], the FIC was determined as 8 µg/mL. In series [4], the “fluconazole MIC in combination” value was 2 µg/mL. The “fractional inhibitory concentration index (FICI)” value in series [5] came to 0.31. Besides, the solubility in series [19] was determined as 9.12 µg/mL (≈ 30.1 µM).
For the compound `Nc1cc(=O)n(C(=S)Nc2ccc(Cl)c(Cl)c2)[nH]1`, the Ki in series [1] was determined as 109 µM. Further, the MIC in series [2] is 0.25 µg/mL (≈ 0.825 µM); in series [6], 0.25 µg/mL (≈ 0.825 µM); in series [7], 0.25 µg/mL (≈ 0.825 µM); in [8], 4 µg/mL (≈ 13.2 µM); in series [9], 4 µg/mL (≈ 13.2 µM); in [10], 4 µg/mL (≈ 13.2 µM). In addition, the MIC in [11] came out at 2 µg/mL (≈ 6.6 µM); in [12], 2 µg/mL (≈ 6.6 µM); in [13], 16 µg/mL (≈ 52.8 µM); in series [14], 1 µg/mL (≈ 3.3 µM); in series [15] it was 1 µg/mL (≈ 3.3 µM); in series [16], 0.063 µg/mL (≈ 0.208 µM). The FIC in [3] amounted to 0.13 µg/mL. In [4], the “fluconazole MIC in combination” value was 0.25 µg/mL. The “fractional inhibitory concentration index (FICI)” value in [5] is given as 0.53.
